The text below walks through data of patent publication US20220151993A1, “TREATMENT OF ANXIETY AND DEPRESSION” (NEW YORK UNIVERSITY, priority 2020, published 2022).

Data set [1] relates to patients with cancer-related psychiatric and existential distress. The experiment in a line: Lasting negative or adverse effects reported during long-term follow-up. The format is in vivo, human. To be noted: LTFU period; 13 of 14 participants provided information. Here is the method: (§1) 29 participants were randomly assigned to one of two groups: psilocybin (0.3 mg/kg) on the first medication session followed by niacin (250 mg) on the second session (i.e. psilocybin-first group), or niacin (250 mg) on the first medication session followed by psilocybin (0.3 mg/kg) on the second session (i.e. niacin-first group). Psilocybin and niacin were administered in identically appearing gelatin capsules.
Participants received three 2-hour preparatory psychotherapy sessions in order to review the purpose and intention of participation in the study, treatment goals, and structure of the treatment sessions. Medications were administered in 8-hour treatment sessions which included a discussion of the participant's subjective experience with the treatment team to consolidate the memory of the experience and to begin the process of post-integrative psychotherapy. Participants also received three 2-hour post-medication integration sessions (repeated after the second dosing session) to further consolidate the memory of the experience and to continue the process of psychological integration. […]

Data set [2] deals with patients with life-threatening cancer. To be noted: 6-month follow up; cited from earlier work.
For data set [3], the system named is patients with cancer-related psychiatric and existential distress. The experiment in a line: Functional Assessment of Chronic Illness Therapy-Spiritual Well-Being (FACIT-Sp-12), long-term follow-up. In kind it is in vivo, human. Conditions: for Faith / Meaning/peace / Spiritual well-being: single 0.3 mg/kg dose with psychotherapy; for Faith: baseline 6.75; for Meaning/peace: baseline 19.43; for Spiritual well-being: baseline 55.69. Here is the method:
(§2) The present example assesses the long-term effects of a single dose of psilocybin (0.3 mg/kg) in conjunction with psychotherapy in patients with cancer-related psychiatric and existential distress.
as §1
(§3) Participants received three 2-hour preparatory psychotherapy sessions in order to review the purpose and intention of participation in the study, treatment goals, and structure of the treatment sessions. Medications were administered in 8-hour treatment sessions which included a discussion of the participant's subjective experience with the treatment team to consolidate the memory of the experience and to begin the process of post-integrative psychotherapy. Participants also received three 2-hour post-medication integration sessions (repeated after the second dosing session) to further consolidate the memory of the experience and to continue the process of psychological integration. All psychotherapy treatment sessions were delivered by a dyadic therapy team trained in a blend of psychotherapies with an evidence base to support their use in cancer patients (drawing upon principles of palliative care therapy, existential psychotherapy, cognitive-behavioural therapy, psychoanalysis therapy, and transpersonal psychology) and were taught about the safety and clinical pharmacology of psilocybin. Each therapy dyad underwent six confidential one-to-one sessions to build their alliance and exchange ideas about psychedelic therapy. The trial employed a crossover design at seven weeks following the first drug administration, with an outcome assessment at 6.5 months (26 weeks) following the second drug administration (i.e. after the crossover).
(§4) Two long-term follow ups (LTFUs) were carried out to assess the continued effect of psilocybin. Of the original 29 participants, all 16 participants who were not deceased at the time of LTFU were contacted (the remaining 13 participants were deceased). Of the 16 participants who were contacted, 15 agreed to participate in the LTFU and completed measures through a secure online portal. One participant died (from cancer-related complications) after completing the first LTFU and prior to the second LTFU, leaving us with 14 participants at the second LTFU. The first and second LTFUs occurred on average 3.2 years (range 2.3-4.5 years) and 4.5 years (range 3.5-5.5 years) following the participants' psilocybin dosing date, respectively.
Spirituality was assessed using the Functional Assessment of Chronic Illness Therapy-Spiritual Well-Being (FACIT-Sp-12; Bredle et al., 2011). This is a 12-item measure of spiritual well-being among individuals with cancer and other forms of chronic illness. Items are rated on a five-point Likert scale. The measure yields three subscales: a sense of meaning/peace in life, a sense of comfort from one's faith, and total spiritual well-being score. Total scores for each subscale range from 0-32, 0-16, and 0-48, respectively. Data have not been published regarding recommended cutoff scores for this measure. This measure has shown good reliability (Cronbach's a ranging from 0.81-0.88) and has been well validated (Bredle et al. 2011).
Regarding all analyses for both the primary and secondary outcome assessments, both the psilocybin-first and niacin-first dose sequence groups were collapsed and combined into one group. Reasons for this decision included the crossover design, which prevented valid between-group comparisons subsequent to the crossover, and a need to increase power given the modest sample size. […]

Data set [4] shares this test system. The experiment in a line: Death Anxiety Scale (DAS), long-term follow-up. Conditions: single 0.3 mg/kg dose with psychotherapy, baseline 8.06. The format is in vivo, human. Here is the method:
as §2, §1
as §3, with “Each therapy dyad underwent six confidential one-to-one sessions to build their alliance and exchange ideas about psychedelic therapy. The trial employed a crossover design at seven weeks following the first drug administration, with an outcome assessment at 6.5 months (26 weeks) following the second drug administration (i.e. after the crossover).” left out
Cancer-related existential distress (demoralization, hopelessness, attitudes and effects associated with disease progression and death) was assessed using the following methods: • The Death Anxiety Scale (DAS) (Templer, 1970)—a 15-item measure that has been used most frequently to assess death anxiety. Items are scored “true” and “false” and then scored as one and zero, respectively. […]

Data set [5] has the same test system. The experiment in a line: Spielberger State-Trait Anxiety Inventory (STAI), long-term follow-up. The format is in vivo, human. Conditions: single 0.3 mg/kg dose with psychotherapy; for STAI State Anxiety: baseline 43.94; for STAI Trait Anxiety: baseline 47.81. Here is the method: as §2, §1, §3, §4
Primary outcomes (anxiety and depression) were measured according to the following methods: • Hospital Anxiety and Depression Scale (HADS) (Zigmond and Snaith, 1983)—this is widely used in hospital settings to screen for the severity of anxiety and depression. It contains 14 questions rated on a four-point scale (total score (HAD-T) ranges from 0-56). Subscale scores can be calculated for depression (HADS-D) and anxiety (HADS-A). […] The HADS has shown good reliability (Cronbach's a ranging from 0.80-0.93) and has been well validated (Herrmann, 1997). • Beck Depression Inventory-II (BDI-II) (Beck et al., 1988)—a widely used self-report screening measure for depression. […]

The mark [6] stands for this setting: mean score at 4.5 years, p < 0.01 vs baseline.
The mark [7] stands for this setting: mean score at 4.5 years, p < 0.05 vs baseline.
Where [8] appears, read: mean score at 6.5-8 months, p < 0.01 vs baseline.
Where [9] appears, read: mean score at 6.5-8 months, p < 0.001 vs baseline.
The mark [10] stands for this setting: mean score at 3.2 years, p < 0.01 vs baseline.

Structures are written as SMILES.

As to `CN(C)CCc1c[nH]c2cccc(OP(=O)(O)O)c12` [psilocybin, [3-(2-dimethylaminoethyl)-1H-indol-4-yl] dihydrogen phosphate], the “lasting negative or adverse effects from the psilocybin-assisted therapy experiences” value in data set [1] is on record as “None of the participants reported lasting negative or adverse effects”. In addition, in data set [2], the “participants continuing to show decreases in depressed mood and anxiety” value was “about 80%”. Also, the Faith is on record as 9.31 in data set [3] (mean score at 3.2 years, p < 0.05 vs baseline); 10.43 in data set [3] (setting [6]); 9.77 in data set [3] (setting [8]). Further, the Meaning/peace stood at 19.27 in data set [3] (mean score at 3.2 years), 20.20 in data set [3] (mean score at 4.5 years) and 26.34 in data set [3] (setting [9]). Also, the Spiritual well-being in data set [3] (mean score at 3.2 years) is recorded as 59.85; in data set [3] (setting [7]) it was 65.04; in data set [3] (setting [9]) it was 70.58. Besides, the “spiritual well-being and faith domains (FACIT-Sp-12) relative to baseline” value in data set [3] (second LTFU) was “significant improvements”. Moreover, the Death anxiety in data set [4] (setting [10]) worked out at 5.68; in data set [4] (setting [7]), 5.75; in data set [4] (setting [8]) it was 6.09. Also, the entries for the “STAI State Anxiety” value in data set [5] (setting [10]), in data set [5] (setting [7]) and in data set [5] (setting [9]) were 33.00, 34.41 and 29.84, respectively. Moreover, the “STAI Trait Anxiety” value came out at 35.78 in data set [5] (setting [6]) and 28.23 in data set [5] (setting [9]).
